Read-outs that look alike come from different tables or passages of the source.
Experiments:
Assay type in all cases: physicochemical
[1] = Solubility of Form I and Form II in different solvents (excess shaken 24 hours at 20° C., filtration, UV spectrometry); details: for solubility thermodynamic at 24 h: thermodynamic from solid, read-out: Solubility in g/100 mL of solution
Description: An excess of product (Form I or Form II, where appropriate) was shaken with the relevant solvent during 24 hours at 20° C. After filtration, the concentration of the product in solution was determined with UV spectrometry.

[2] = Intrinsic dissolution; details: compared with Form I
[3] = Stability of the polymorphic forms; details: compared among the polymorphic forms
[4] = Hygroscopicity of the polymorphic forms; details: compared among the polymorphic forms
[5] = 1-methoxy-2-propanol, 24 hours at 20° C.
[6] = 2-propanol/dichloromethane (97/3) (v/v), 24 hours at 20° C.
[7] = 2-propanone, 24 hours at 20° C.
[8] = 4-methyl-2-pentanone, 24 hours at 20° C.
[9] = acetonitrile, 24 hours at 20° C.
[10] = ethanol/water (95/5) (v/v), 24 hours at 20° C.

Structure (SMILES) | Solubility in g/100 mL of solution [1, 5] [g/100 mL] | Solubility in g/100 mL of solution ([1]; 2-butanone, 24 hours at 20° C.) [g/100 mL] | Solubility in g/100 mL of solution [1, 6] [g/100 mL] | Solubility in g/100 mL of solution ([1]; 2-propanol, 24 hours at 20° C.) [g/100 mL] | Solubility in g/100 mL of solution [1, 7] [g/100 mL] | Solubility in g/100 mL of solution [1, 8] [g/100 mL] | Solubility in g/100 mL of solution [1, 9] [g/100 mL] | Solubility in g/100 mL of solution [1, 10] [g/100 mL] | Solubility in g/100 mL of solution ([1]; ethanol, 24 hours at 20° C.) [g/100 mL] | Solubility in g/100 mL of solution ([1]; methanol, 24 hours at 20° C.) [g/100 mL] | Solubility in g/100 mL of solution ([1]; toluene, 24 hours at 20° C.) [g/100 mL] | Stability of the polymorph form [3] | further results
COc1ccc2c(O[C@@H]3C[C@H]4C(=O)N[C@]5(C(=O)NS(=O)(=O)C6CC6)C[C@H]5/C=C\CCCCN(C)C(=O)[C@@H]4C3)cc(-c3nc(C(C)C)cs3)nc2c1C [Form II] | 1.6 | 2.5 | 0.19 | 0.11 | 1.2 | 0.81 | 0.20 | 0.27 | 0.17 | 0.29 | 0.43 | less stable but nevertheless sufficiently stable | Solubility in g/100 mL of solution ([1]; 1-butanol, 24 hours at 20° C.): 0.31 g/100 mL; Intrinsic dissolution [2]: greater than that of Form I
COc1ccc2c(O[C@@H]3C[C@H]4C(=O)N[C@]5(C(=O)NS(=O)(=O)C6CC6)C[C@H]5/C=C\CCCCN(C)C(=O)[C@@H]4C3)cc(-c3nc(C(C)C)cs3)nc2c1C [Form I] | 0.82 | 0.87 | 0.045 | 0.027 | 0.66 | 0.28 | 0.075 | 0.078 | 0.050 | 0.056 | 0.086 | most stable form | Hygroscopicity [4]: least hygroscopic form; Solubility in g/100 mL of solution ([1]; N,N-dimethylacetamide*, 125 mg of Form I was dissolved in 0.5 mL of N,N-dimethylacetamide): >20 g/100 mL; Solubility in g/100 mL of solution ([1]; N,N-dimethylacetamide, 24 hours at 20° C.): 16 g/100 mL; Solubility in g/100 mL of solution ([1]; acetic acid, 24 hours at 20° C.): 1.7 g/100 mL; solubility thermodynamic at 24 h ([1]; aqueous with cosolvent or surfactant or cyclodextrin, acetic acid/water (10/90) (v/v) (pH = 2.2), 24 hours at 20° C.): < 10 µg/mL; Solubility in g/100 mL of solution ([1]; dichloromethane, 24 hours at 20° C.): 8.5 g/100 mL; Solubility in g/100 mL of solution ([1]; ethyl acetate, 24 hours at 20° C.): 0.21 g/100 mL; Solubility in g/100 mL of solution ([1]; methanol/dichloromethane (50/50) (v/v), 24 hours at 20° C.): 8.3 g/100 mL; Solubility in g/100 mL of solution ([1]; tetrahydrofuran, 24 hours at 20° C.): 7.0 g/100 mL; solubility thermodynamic at 24 h ([1]; water (pH = 5.0), 24 hours at 20° C.): < 10 µg/mL
